From publication PMC6797481, “Identification of an allosteric binding site on the human glycine transporter, GlyT2, for bioactive lipid analgesics” (eLife, 2019)
Numbering of substitutions follows the chain as printed.

Columns and labels:
GlyT2 W563L mutant = target: T1, GlyT2 W563L mutant (Homo sapiens, UniProt Q9Y345, W563L); test: Glycine transport currents, two electrode voltage clamp, oocytes expressing GlyT2 W563L; type: cell-based; conditions: for % Max. inhibition: mean ± SEM
T1 construct: expressed in transfected cells; host or cells: Xenopus laevis oocytes (cRNA injection)
T1 sequence (Q9Y345 1-797 W563L): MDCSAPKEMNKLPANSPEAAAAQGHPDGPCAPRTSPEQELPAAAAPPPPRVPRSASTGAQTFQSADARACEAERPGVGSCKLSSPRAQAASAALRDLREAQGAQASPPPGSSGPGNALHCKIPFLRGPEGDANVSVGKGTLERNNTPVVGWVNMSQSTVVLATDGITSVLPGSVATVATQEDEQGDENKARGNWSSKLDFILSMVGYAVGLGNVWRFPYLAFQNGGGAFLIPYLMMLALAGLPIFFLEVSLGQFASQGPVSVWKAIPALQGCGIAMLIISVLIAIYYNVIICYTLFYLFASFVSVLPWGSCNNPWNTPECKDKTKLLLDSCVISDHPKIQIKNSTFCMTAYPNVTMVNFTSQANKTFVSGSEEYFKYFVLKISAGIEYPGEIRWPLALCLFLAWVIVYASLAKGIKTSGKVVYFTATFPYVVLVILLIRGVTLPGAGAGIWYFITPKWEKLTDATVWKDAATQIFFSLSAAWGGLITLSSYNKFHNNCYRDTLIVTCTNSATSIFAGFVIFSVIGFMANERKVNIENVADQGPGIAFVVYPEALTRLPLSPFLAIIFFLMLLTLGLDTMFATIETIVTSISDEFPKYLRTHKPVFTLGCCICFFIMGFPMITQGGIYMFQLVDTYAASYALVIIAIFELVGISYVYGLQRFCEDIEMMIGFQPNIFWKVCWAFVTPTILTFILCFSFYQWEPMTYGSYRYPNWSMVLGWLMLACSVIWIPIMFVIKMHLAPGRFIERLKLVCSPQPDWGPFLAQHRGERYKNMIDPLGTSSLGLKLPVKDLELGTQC
Method: (§1) Glycine was first applied to establish maximal transport current.
(§2) Compounds were tested for inhibition of glycine transport on Xenopus laevis oocytes expressing mutant GlyT1 and GlyT2 transporters. n values are in brackets, with measurements taken from at least 2 batches of oocytes.

GlyT2 WT = target: T2, GlyT2 WT (Homo sapiens, UniProt Q9Y345); design: expressed in transfected cells; host or cells: Xenopus laevis oocytes (cRNA injection); conditions: cited from earlier work; for IC50 / GlyT2 % max. inhibition: WT GlyT2, previously published; for IC50: mean (95% CI); for GlyT2 % max. inhibition: mean ± SEM; for mechanism of inhibition: versus substrate glycine, ref Mostyn et al., 2019, Wiles et al., 2006
T2 sequence (Q9Y345 1-797): T1 sequence (Q9Y345 1-797 W563L) with L563W

GlyT2 F428A mutant = target: T3, GlyT2 F428A mutant (Homo sapiens, UniProt Q9Y345, F428A); test: Glycine transport currents, two electrode voltage clamp, oocytes expressing GlyT2 F428A; type: cell-based; conditions: for % Max. inhibition (% inhibition at the highest concentration of inhibitor used): footnote b
T3 construct: expressed in transfected cells; host or cells: Xenopus laevis oocytes (cRNA injection)
T3 sequence (Q9Y345 1-797 F428A): T1 sequence (Q9Y345 1-797 W563L) with F428A, L563W
Method: as §1, §2

[1] = GlyT2 W563L, greater than maximum concentration applied (footnote a)

Molecule	IC50 (GlyT2 W563L mutant; GlyT2 W563L, mean (95% CI))	% Max. inhibition (GlyT2 W563L mutant; GlyT2 W563L)	IC50 (GlyT2 WT)	GlyT2 % max. inhibition (GlyT2 WT)	IC50 (GlyT2 W563L mutant; [1])	IC50 (GlyT2 F428A mutant; GlyT2 F428A)	% Max. inhibition (% inhibition at the highest concentration of inhibitor used) (GlyT2 F428A mutant; GlyT2 F428A)	also measured
CCCCCCCC/C=C\CCCCCCCC(=O)N[C@@H](CC(=O)O)C(=O)O [oleoyl l-Aspartate]	1160 nM	74.9 ± 7.5 (p=0.9965) %	865 nM	76.7 ± 5.3%				
NCC(=O)O [Glycine]								EC50 (GlyT2 W563L mutant; glycine transport, GlyT2 W563L (TM8)): 4900 ± 800 nM; EC50 (GlyT2 F428A mutant; glycine transport, GlyT2 F428A (TM5)): 6200 ± 400 nM
CCCCCCCC/C=C\CCCCCCCC(=O)O[C@H](CC(=O)[O-])C[N+](C)(C)C [oleoyl L-Carnitine, reference compound]		34.7 ± 3.2 (p=0.0001) %	340 nM	71.5 ± 5.7%	> 3000 nM	> 3000 nM	22.7 ± 3.0^b (p=0.0001) %	
CCCCCCCC/C=C\CCCCCCCC(=O)N[C@H](C(=O)O)C(C)C [oleoyl l-Valine]	7510 nM		1170 nM	90.9 ± 5.9%				% Max. inhibition (% inhibition at the highest concentration of inhibitor used) (GlyT2 W563L mutant; GlyT2 W563L, footnote b): 56.3 ± 9.1^b (p=0.5737) %
CCCCCCCC/C=C\CCCCCCCC(=O)NCC(=O)O [N-oleoyl Glycine, reference compound]	755 nM	46.6 ± 4.0 (p=0.0449) %	500 nM	66.8 ± 2.8%		> 10000 nM		% Max. inhibition (GlyT2 F428A mutant; GlyT2 F428A, mean ± SEM): 25.4 ± 4.9 (p=0.0001) %
oleoyl d-Lysine		42.1 ± 7.7 (p=0.0017) %	48.3 nM	91.0 ± 1.9%	> 3000 nM			
CCCCCCCC/C=C\CCCCCCCC(=O)N[C@@H](Cc1c[nH]c2ccccc12)C(=O)O [oleoyl l-Tryptophan]		42.9 ± 2.6 (p=0.0001) %		86.2 ± 3.8%	> 3000 nM			
CCCCCCCC/C=C\CCCCCCCC(=O)N[C@@H](CCCCN)C(=O)O [oleoyl l-Lysine]	175 nM	73.5 ± 3.3 (p=0.1479) %		86.8 ± 2.4%		> 3000 nM	39.2 ± 2.3^b (p=0.0001) %	mechanism of inhibition (GlyT2 WT): not competitive
CCCCC/C=C\C/C=C\C/C=C\C/C=C\CCCC(=O)NCC(=O)O [N-arachidonyl Glycine, reference compound]			9100 nM	79.6 ± 2.1%			64.7 ± 6.6^b (p=0.9998) %	IC50 (GlyT2 F428A mutant; GlyT2 F428A, mean (95% CI)): 14400 nM; mechanism of inhibition (GlyT2 WT): not competitive
